Results taken from US20170232083A1, “METHODS OF DIAGNOSIS AND TREATMENT OF CELIAC DISEASE IN CHILDREN” (priority 2014, published 2017).

Tested on: PBMC (polyclonal gluten-specific T cells) of paediatric and adult CD patients
Test: IFN-γ ELISpot of PBMC after 3 day oral wheat challenge (SFU, % of maximal peptide response, dominance scores, EC50; Examples 5-6)
Type: cell-based, human
Conditions: for IFN-γ ELISpot response: after oral wheat challenge
[1] = patient A, 11-17 yrs, cut-off 10 SFU
[2] = patient E, H, 11-17 yrs, cut-off 10 SFU
[3] = patient F, 11-17 yrs, cut-off 10 SFU
[4] = patient G, 11-17 yrs, cut-off 10 SFU
[5] = patient H (HLA-DQ2.5 homozygote), 3-5yrs, cut-off 10 SFU
[6] = patient H, 11-17 yrs, cut-off 10 SFU
[7] = patient ID not given, 11-17 yrs, cut-off 10 SFU
[8] = patient N, 3-5yrs, cut-off 10 SFU
[9] = patient P, 11-17 yrs, cut-off 21.6 SFU
[10] = patient Q, 11-17 yrs, cut-off 10 SFU
[11] = patient U, H, 11-17 yrs, cut-off 10 SFU
[12] = patient V, 6-10 yrs, cut-off 10 SFU
[13] = patient Y, 6-10 yrs, cut-off 10 SFU
[14] = patient eleven, 6-10 yrs, cut-off 10 SFU
[15] = patient four, 3-5yrs, cut-off 10 SFU
[16] = patient seven, 6-10 yrs, cut-off 10.5 SFU
[17] = patient ten, 3-5yrs, cut-off 10 SFU
[18] = patient three, 6-10 yrs, cut-off 10.5 SFU
[19] = patient twelve, 11-17 yrs, cut-off 10 SFU
[20] = patient two, 3-5yrs, cut-off 10 SFU

PEQTFPEQPQLPF
IFN-γ ELISpot response [1]: 3 SFU | IFN-γ ELISpot response [2]: 19 SFU | Significant response as percentage of maximal peptide SFU (patient E, max peptide 224 SFU): (6-10% = ^) | IFN-γ ELISpot response [3]: 1 SFU | IFN-γ ELISpot response [4]: 15 SFU | Significant response as percentage of maximal peptide SFU (patient G, max peptide 15 SFU): + (>70% = +) | IFN-γ ELISpot response [5]: 2 SFU | IFN-γ ELISpot response [6]: 9 SFU | IFN-γ ELISpot response [7]: 0 SFU | Significant response as percentage of maximal peptide SFU (patient J, max peptide 196 SFU): + (>70% = +) | Significant response as percentage of maximal peptide SFU (patient K, max peptide 53 SFU): ′′′ (41-70% = ′′′) | IFN-γ ELISpot response [8]: 1 SFU | IFN-γ ELISpot response [9]: 4 SFU | IFN-γ ELISpot response [10]: 2 SFU | IFN-γ ELISpot response [11]: 1 SFU | IFN-γ ELISpot response [12]: 4 SFU | IFN-γ ELISpot response [13]: 1 SFU | IFN-γ ELISpot response [14]: 0 SFU | IFN-γ ELISpot response [15]: 0 SFU | IFN-γ ELISpot response [16]: 4 SFU | IFN-γ ELISpot response [17]: 4 SFU | IFN-γ ELISpot response [18]: 179 SFU | IFN-γ ELISpot response [19]: 0 SFU | IFN-γ ELISpot response [20]: 1 SFU

PFPEQPEQPFPQP
IFN-γ ELISpot response [1]: 4 SFU | Significant response as percentage of maximal peptide SFU (patient D, max peptide 30.5 SFU): ′′ (21-40% = ′′) | IFN-γ ELISpot response [2]: 30 SFU | Significant response as percentage of maximal peptide SFU (patient E, max peptide 224 SFU): ′ (11-20% = ′) | IFN-γ ELISpot response [3]: 32 SFU | Significant response as percentage of maximal peptide SFU (patient F, max peptide 178 SFU): ′ (11-20% = ′) | IFN-γ ELISpot response [4]: 5 SFU | IFN-γ ELISpot response [5]: 19 SFU | IFN-γ ELISpot response [6]: 17 SFU | Significant response as percentage of maximal peptide SFU (patient H, max peptide 17 SFU): + (>70% = +) | IFN-γ ELISpot response [7]: 24 SFU | Significant response as percentage of maximal peptide SFU (patient ID not given, max peptide 95 SFU): ′′ (21-40% = ′′) | Significant response as percentage of maximal peptide SFU (patient J, max peptide 196 SFU): ′′ (21-40% = ′′) | Significant response as percentage of maximal peptide SFU (patient K, max peptide 53 SFU): ′′ (21-40% = ′′) | Significant response as percentage of maximal peptide SFU (patient M, max peptide 48 SFU): ′′ (21-40% = ′′) | IFN-γ ELISpot response [8]: 2 SFU | IFN-γ ELISpot response [9]: 8 SFU | IFN-γ ELISpot response [10]: 35 SFU | Significant response as percentage of maximal peptide SFU (patient Q, max peptide 97 SFU): ′′ (21-40% = ′′) | IFN-γ ELISpot response [11]: 13 SFU | Significant response as percentage of maximal peptide SFU (patient U, max peptide 81 SFU): ′ (11-20% = ′) | IFN-γ ELISpot response [12]: 16 SFU | Significant response as percentage of maximal peptide SFU (patient V, max peptide 35 SFU): ′′′ (41-70% = ′′′) | IFN-γ ELISpot response [13]: 4 SFU | IFN-γ ELISpot response [14]: 4 SFU | Significant response as percentage of maximal peptide SFU (patient five, max peptide 48 SFU): ′′ (21-40% = ′′) | IFN-γ ELISpot response [15]: 6 SFU | IFN-γ ELISpot response [16]: 9 SFU | IFN-γ ELISpot response [17]: 5 SFU | IFN-γ ELISpot response [18]: 51 SFU | IFN-γ ELISpot response [19]: 11 SFU | IFN-γ ELISpot response [20]: 24 SFU | Significant response as percentage of maximal peptide SFU (patient two, max peptide 60 SFU): ′′ (21-40% = ′′)
